Experimental data: patent US9096538B2, “Pharmaceutical comprising PPAR agonist” (Senju Pharmaceutical Co., Ltd., priority 2005, dated 2015)

How the values were obtained:
[1] = test system: normal human corneal epithelial cell; assay: Test Example 5: increase in cell number, normal human corneal epithelial cell, 24 hours (Cell Counting Kit-8); type: cell-based; settings: no addition group = 100%, average ± standard deviation, N = 3 to 4
Description: A normal human corneal epithelial cell (KURABO) was used.
As the test substance, the following compounds were used. PPARδ agonist: L-165041 (Sigma-Aldrich), GW-501516 (Alexis)
In addition, as a positive control for confirming the cell proliferation promoting effect, a medium in which a mouse-derived epithelial growth factor (mEGF) contained in an HCGS proliferation additive set (KURABO) was added to a basal medium (basal medium+1 ng/mL mEGF) was used.
This cell suspension was seeded on a fibronectin-coated multiwell plate (24 well, BECTON DICKINSON) so that the cell number became 2×10^4 cells/500 μL/well (since the bottom area is 2 cm^2, the number is 1×10^4 cells/cm^2).
Further, 24 hours thereafter, the culture medium was exchanged with each 400 μL of the following culture media. • [1] Only basal medium (no addition group) • [2] Basal medium+mEGF (final concentration: 1 ng/mL; positive control group) • [3] Basal medium+L-165041 (final concentration: 0.01 μM and 0.1 μM) • [4] Basal medium+GW-501516 (final concentration: 0.001 μM and 0.01 μM)

[2] = test system: monkey meibomian gland epithelial cell; assay: Test Example 3: increase in cell number, cultured monkey meibomian gland epithelial cell (Cell Counting Kit-8); type: cell-based, cynomolgus monkey; settings: 48 + 48 hours; for Cell proliferation (%): no addition group = 100%, average ± standard deviation, N = 5
Description: A female cynomolgus monkey (Environmental Biological Life Science Research Center) was used. The experimental animal was used according to the International Guiding Principles for Biomedical Research Involving Animals.
A meibomian gland epithelial cell was prepared from a monkey eyelid. An eyelid was isolated, and stored in Dulbecco's phosphate buffered saline (D-PBS; Invitrogen), and this was transferred to a clean bench. The following cell preparation procedures were all performed sterilely.
After the isolated eyelid was immersed in 80% ethanol for 30 seconds, the eyelid was washed with D-PBS with 1% penicillin-streptomycin (Invitrogen) added thereto three times, and transferred to a minimum essential medium (MEM; Invitrogen). A fat tissue and a muscle tissue surrounding a meibomian gland tissue were removed under a stereomicroscope, and this was transferred to MEM containing 0.475 U/mL of collagenase A (Roche Diagnostics) and 2.4 U/mL of dispase II (Roche Diagnostics), and incubated at 37° C. overnight. After completion of incubation, the enzyme-treated tissue was placed again under the stereomicroscope, eyelashes and an eyelid connective tissue were removed, and a meibomian gland tissue was isolated. To the isolated gland tissue was added 1 mL of trypsin-EDTA (Invitrogen), and this was incubated at 37° C. for 5 minutes. After incubation, to this was added 9 mL of MEM containing 10% FBS to stop the enzymatic reaction, then, suction and exhaustion were repeated five times using a 10 mL pipette and, further, five times using an injection syringe equipped with a 21 G injection needle to disperse tissue-constituting cells. […] The cell suspension which had passed through the filter was recovered in a 50 mL centrifuge tube, and subjected to centrifugation at room temperature and 1,500 rpm for 5 minutes. To a cell layer containing an objective cell obtained by centrifugation was added 80 μL of D-PBS containing 0.5% bovine serum albumin (BSA; Sigma-Aldrich) to sufficiently suspend the cell, to this was added 20 μL of Anti-Fibroblast Microbeads (Militenyi Biotec), and this was allowed to stand at room temperature for 30 minutes. After completion of the reaction with an antibody, to this was added 2 mL of D-PBS containing 0.5% BSA, and this was subjected again to centrifugation at room temperature and 1,500 rpm for 5 minutes. To a cell layer containing an objective cell obtained by centrifugation was added 1 mL of D-PBS containing 0.5% BSA to sufficiently suspend the cell, and this was added dropwise to an LD column (Militenyi Biotec) equilibrated in advance using a column washing solution (D-PBS containing 2 mM EDTA (Dojindo Laboratories) and 0.5% BSA). Then, 2 mL of the column washing solution was added dropwise to the LD column. […] The cell recovered in the centrifuge tube was subjected again to centrifugation at room temperature and 1,500 rpm for 5 minutes to remove the supernatant. To this precipitation was added 1 mL of Defined Keratinocyte-Serum Free Medium (DK-SFM; Invitrogen) to suspend the cell and thereby, a meibomian gland epithelial cell suspension was prepared. The prepared cell was seeded on a culture dish (IWAKI) for cell culturing having a diameter of 3.5 cm which had been coated with a type I collagen solution (Nitta Gelatin Inc.) in advance, and to which 3 mL of DK-SFM had been added. The seeded cell was cultured in an incubator (SANYO) set at 37° C., 5% CO2, 95% air, and 100% humidity, and the culture medium was exchanged with a fresh culture medium every 48 hours until the test day.
Each test substance was dissolved in ethanol (Wako Pure Chemical Industries, Ltd.) to a 200-fold concentration of a final concentration in the culture medium, and this was stored at −80° C. until immediately before use.
As a culture dish for a cell proliferation promotion test, a 96-well culture dish for tissue culture (Corning) was used.

[3] = test system: monkey meibomian gland epithelial cell; assay: Test Example 8: increase in number of monkey meibomian gland epithelial cells (Cell Counting Kit-8); type: cell-based; settings: 3 x 48 hours; for Cell proliferation (%): no addition group = 100%, average ± standard deviation, N = 5
From the text: For studying the effect of promoting cell proliferation by each test substance, a culture medium prepared by removing the supplement attached to DK-SFM, from DK-SFM, was used as a basal medium, while as a positive control for confirming the cell proliferation promoting effect, a culture medium with the supplement added thereto (basal medium+supplement) was used according to instructions of an DK-SFM preparation protocol. […] In the test, a monkey meibomian gland epithelial cell which had been cultured to subconfluent, suspended in a cell banker (Nippon Zenyaku Kogyo Co., Ltd.), and cryopreserved in liquid nitrogen was used. The cell which had been cryopreserved was thawed, and transferred to a 50 mL centrifuge tube and a 10-fold amount of DK-SFM was added thereto. […] Each 64 μL of this cell suspension was dispensed into each well so that the cell number per bottom area (0.32 cm^2) of the collagen-treated 96-well culture dish for tissue culture became 4×10^4 cells/cm^2. […] After 48 hours from initial culture medium exchange, the culture medium was exchanged with a freshly prepared culture medium of each of [1] to [4]. Further, after 48 hours therefrom, the culture medium was exchanged again with a freshly prepared culture medium of each of [1] to [4].

CCCc1c(OCCCOc2ccc(OCC(=O)O)cc2)ccc(C(C)=O)c1O [L-165041, (4-(3-(4-acetyl-3-hydroxy-2-propyl)phenoxy)propoxyphenoxy)acetic acid]
Cell proliferation (%) ([1]; 10^−7 M): 127.8 ± 6.0%
Cell proliferation (%) ([1]; 10^−8 M): 128.1 ± 5.3%
Cell proliferation (%) ([2]; 10^−6 M): 142.8 ± 5.4%
Cell proliferation (%) ([2]; 10^−7 M): 136.1 ± 4.7%
cell proliferation compared to the no addition group (in words) ([2]; p<0.01 where significant): significantly higher than in the no addition group
cell proliferation compared to the no addition group (in words) ([3]; 10^−6 M): significantly higher than in the no addition group
Cell proliferation (%) ([3]; 10^−6 M): 169.1 ± 19.6%
Cell proliferation (%) ([3]; 10^−7 M): 142.9 ± 22.3%
